Conditions: Coaxial cylinder method

CCC [propane]
Conditions	thermal conductivity [W/m/K]
365.72 K, 3978 kPa, Liquid	0.08613
365.72 K, 3979 kPa, Liquid	0.08495
365.72 K, 3980 kPa, Liquid	0.08381
365.72 K, 3985 kPa, Liquid	0.07882
365.72 K, 3990 kPa, Liquid	0.07478
365.72 K, 3995 kPa, Liquid	0.07164
365.72 K, 4000 kPa, Liquid	0.06921
365.72 K, 4010 kPa, Liquid	0.066
365.72 K, 4014 kPa, Liquid	0.06521
365.72 K, 4020 kPa, Liquid	0.06438
365.72 K, 4025 kPa, Liquid	0.06418
365.72 K, 4030 kPa, Liquid	0.06394
365.72 K, 4035 kPa, Liquid	0.06394
365.72 K, 4040 kPa, Liquid	0.06389
365.72 K, 4045 kPa, Liquid	0.06389
365.72 K, 4050 kPa, Liquid	0.06389
365.72 K, 4055 kPa, Liquid	0.06385
365.72 K, 4060 kPa, Liquid	0.06385
365.72 K, 4080 kPa, Liquid	0.06377
365.72 K, 4100 kPa, Liquid	0.06375
365.72 K, 4120 kPa, Liquid	0.06375
365.72 K, 4140 kPa, Liquid	0.06377
365.72 K, 4160 kPa, Liquid	0.06377
365.72 K, 4180 kPa, Liquid	0.06377
365.72 K, 4200 kPa, Liquid	0.06381
365.72 K, 4250 kPa, Liquid	0.06392
365.72 K, 4275 kPa, Liquid	0.06396
365.72 K, 4350 kPa, Liquid	0.06412
365.72 K, 4400 kPa, Liquid	0.06428
365.72 K, 4450 kPa, Liquid	0.06442
365.72 K, 4500 kPa, Liquid	0.06459
365.72 K, 4560 kPa, Liquid	0.06484
365.72 K, 4580 kPa, Liquid	0.0649
365.72 K, 4670 kPa, Liquid	0.06519
365.72 K, 4690 kPa, Liquid	0.06519
366.45 K, 3595 kPa, Gas	0.03694
366.45 K, 3610 kPa, Gas	0.0371
366.45 K, 3880 kPa, Gas	0.04193
366.45 K, 3882 kPa, Gas	0.04198
366.45 K, 3908 kPa, Gas	0.04282
366.45 K, 3915 kPa, Gas	0.04316
366.45 K, 3920 kPa, Gas	0.04339
366.45 K, 3925 kPa, Gas	0.04359
366.45 K, 3930 kPa, Gas	0.04383
366.45 K, 3935 kPa, Gas	0.04406
366.45 K, 3937 kPa, Gas	0.04421
366.45 K, 3949 kPa, Gas	0.04486
366.45 K, 3950 kPa, Gas	0.04487
366.45 K, 3951 kPa, Gas	0.04497
366.45 K, 3952 kPa, Gas	0.04502
366.45 K, 3953 kPa, Gas	0.04507
366.45 K, 3954 kPa, Gas	0.04513
366.45 K, 3955 kPa, Gas	0.04847
366.45 K, 3956 kPa, Gas	0.0498
366.45 K, 3957 kPa, Gas	0.0512
366.45 K, 3958 kPa, Gas	0.05294
366.45 K, 3959 kPa, Gas	0.05452
366.45 K, 3960 kPa, Gas	0.05651
366.45 K, 3961 kPa, Gas	0.05848
366.45 K, 3962 kPa, Gas	0.06058
366.45 K, 3963 kPa, Gas	0.06307
366.45 K, 3964 kPa, Gas	0.06573
366.45 K, 3965 kPa, Gas	0.06816
366.45 K, 3966 kPa, Gas	0.07114
366.45 K, 3967 kPa, Gas	0.07411
366.45 K, 3968 kPa, Gas	0.07748
366.45 K, 3969 kPa, Gas	0.08195
366.45 K, 3970 kPa, Gas	0.08706
366.45 K, 3971 kPa, Gas	0.09339
366.45 K, 3972 kPa, Gas	0.09783
366.45 K, 3973 kPa, Gas	0.1017
366.45 K, 3974 kPa, Gas	0.108
366.45 K, 3975 kPa, Gas	0.114
366.45 K, 3976 kPa, Gas	0.1185
366.45 K, 3977 kPa, Gas	0.1239
366.45 K, 3978 kPa, Gas	0.1288
366.45 K, 3979 kPa, Gas	0.1341
366.45 K, 3980 kPa, Gas	0.1393
366.45 K, 3981 kPa, Gas	0.1449
366.45 K, 3982 kPa, Gas	0.1502
366.45 K, 3983 kPa, Gas	0.1559
366.45 K, 3984 kPa, Gas	0.1614
366.45 K, 3985 kPa, Gas	0.1661
366.45 K, 3986 kPa, Gas	0.1732
366.45 K, 3987 kPa, Gas	0.1794
366.45 K, 3988 kPa, Gas	0.1853
366.45 K, 3989 kPa, Gas	0.1916
366.45 K, 3990 kPa, Gas	0.1977
366.45 K, 3991 kPa, Gas	0.2045
366.45 K, 3992 kPa, Gas	0.2108
366.45 K, 3993 kPa, Gas	0.2174
366.45 K, 3994 kPa, Gas	0.224
366.45 K, 3995 kPa, Gas	0.2309
366.45 K, 3996 kPa, Gas	0.2389
366.45 K, 3997 kPa, Liquid	0.2535
366.45 K, 3998 kPa, Liquid	0.2389
366.45 K, 3999 kPa, Liquid	0.2261
366.45 K, 4000 kPa, Liquid	0.2153
366.45 K, 4001 kPa, Liquid	0.2051
366.45 K, 4002 kPa, Liquid	0.196
366.45 K, 4003 kPa, Liquid	0.1879
366.45 K, 4004 kPa, Liquid	0.1801
366.45 K, 4005 kPa, Liquid	0.1734
366.45 K, 4006 kPa, Liquid	0.1669
366.45 K, 4007 kPa, Liquid	0.1612
366.45 K, 4008 kPa, Liquid	0.1563
366.45 K, 4009 kPa, Liquid	0.1513
366.45 K, 4010 kPa, Liquid	0.1467
366.45 K, 4011 kPa, Liquid	0.1425
366.45 K, 4012 kPa, Liquid	0.1387
366.45 K, 4013 kPa, Liquid	0.1345
366.45 K, 4014 kPa, Liquid	0.132
366.45 K, 4015 kPa, Liquid	0.1298
366.45 K, 4016 kPa, Liquid	0.127
366.45 K, 4017 kPa, Liquid	0.1241
366.45 K, 4018 kPa, Liquid	0.1223
366.45 K, 4019 kPa, Liquid	0.1202
366.45 K, 4020 kPa, Liquid	0.1175
366.45 K, 4021 kPa, Liquid	0.1145
366.45 K, 4022 kPa, Liquid	0.1126
366.45 K, 4023 kPa, Liquid	0.1108
366.45 K, 4024 kPa, Liquid	0.1089
366.45 K, 4025 kPa, Liquid	0.107
366.45 K, 4026 kPa, Liquid	0.1052
366.45 K, 4027 kPa, Liquid	0.1035
366.45 K, 4028 kPa, Liquid	0.1018
366.45 K, 4029 kPa, Liquid	0.1003
366.45 K, 4030 kPa, Liquid	0.09876
366.45 K, 4031 kPa, Liquid	0.09718
366.45 K, 4032 kPa, Liquid	0.09578
366.45 K, 4033 kPa, Liquid	0.09438
366.45 K, 4034 kPa, Liquid	0.0931
366.45 K, 4035 kPa, Liquid	0.09185
366.45 K, 4036 kPa, Liquid	0.09064
366.45 K, 4037 kPa, Liquid	0.08946
366.45 K, 4038 kPa, Liquid	0.0883
366.45 K, 4039 kPa, Liquid	0.08718
366.45 K, 4040 kPa, Liquid	0.08608
366.45 K, 4045 kPa, Liquid	0.08137
366.45 K, 4050 kPa, Liquid	0.0775
366.45 K, 4055 kPa, Liquid	0.07438
366.45 K, 4057 kPa, Liquid	0.07324
366.45 K, 4065 kPa, Liquid	0.06968
366.45 K, 4070 kPa, Liquid	0.06809
366.45 K, 4075 kPa, Liquid	0.0668
366.45 K, 4080 kPa, Liquid	0.0658
366.45 K, 4085 kPa, Liquid	0.06508
366.45 K, 4090 kPa, Liquid	0.06449
366.45 K, 4095 kPa, Liquid	0.06445
366.45 K, 4100 kPa, Liquid	0.06429
366.45 K, 4105 kPa, Liquid	0.06425
366.45 K, 4110 kPa, Liquid	0.06421
366.45 K, 4115 kPa, Liquid	0.06418
366.45 K, 4120 kPa, Liquid	0.06414
366.45 K, 4125 kPa, Liquid	0.0641
366.45 K, 4130 kPa, Liquid	0.06408
366.45 K, 4140 kPa, Liquid	0.06408
366.45 K, 4150 kPa, Liquid	0.06404
366.45 K, 4160 kPa, Liquid	0.064
366.45 K, 4170 kPa, Liquid	0.06396
366.45 K, 4180 kPa, Liquid	0.06392
366.45 K, 4190 kPa, Liquid	0.06394
366.45 K, 4200 kPa, Liquid	0.06392
366.45 K, 4210 kPa, Liquid	0.06392
366.45 K, 4220 kPa, Liquid	0.06388
366.45 K, 4230 kPa, Liquid	0.06388
366.45 K, 4240 kPa, Liquid	0.06387
366.45 K, 4250 kPa, Liquid	0.06387
366.45 K, 4260 kPa, Liquid	0.0639
366.45 K, 4270 kPa, Liquid	0.0639
366.45 K, 4280 kPa, Liquid	0.0639
366.45 K, 4290 kPa, Liquid	0.0639
366.45 K, 4300 kPa, Liquid	0.06392
366.45 K, 4330 kPa, Liquid	0.06396
366.45 K, 4400 kPa, Liquid	0.0641
366.45 K, 4410 kPa, Liquid	0.06416
366.45 K, 4477 kPa, Liquid	0.06435
366.45 K, 4491 kPa, Liquid	0.06439
367.32 K, 4010 kPa, Gas	0.04654
367.32 K, 4012 kPa, Gas	0.04665
367.32 K, 4014 kPa, Gas	0.04687
367.32 K, 4025 kPa, Gas	0.04792
367.32 K, 4026 kPa, Gas	0.05076
367.32 K, 4027 kPa, Gas	0.05394
367.32 K, 4028 kPa, Gas	0.05642
367.32 K, 4029 kPa, Gas	0.05957
367.32 K, 4030 kPa, Gas	0.06288
367.32 K, 4031 kPa, Gas	0.06655
367.32 K, 4032 kPa, Gas	0.06997
367.32 K, 4033 kPa, Gas	0.07414
367.32 K, 4034 kPa, Gas	0.07824
367.32 K, 4035 kPa, Gas	0.08231
367.32 K, 4036 kPa, Gas	0.08718
367.32 K, 4037 kPa, Gas	0.09169
367.32 K, 4038 kPa, Gas	0.09661
367.32 K, 4039 kPa, Gas	0.1018
367.32 K, 4040 kPa, Gas	0.1068
367.32 K, 4041 kPa, Gas	0.1118
367.32 K, 4042 kPa, Gas	0.1171
367.32 K, 4043 kPa, Gas	0.1226
367.32 K, 4044 kPa, Gas	0.1282
367.32 K, 4045 kPa, Gas	0.134
367.32 K, 4046 kPa, Gas	0.1397
367.32 K, 4047 kPa, Gas	0.145
367.32 K, 4048 kPa, Gas	0.1514
367.32 K, 4050 kPa, Gas	0.1645
367.32 K, 4051 kPa, Gas	0.1714
367.32 K, 4052 kPa, Gas	0.1781
367.32 K, 4053 kPa, Gas	0.1856
367.32 K, 4054 kPa, Gas	0.1925
367.32 K, 4055 kPa, Gas	0.1998
367.32 K, 4056 kPa, Gas	0.2078
367.32 K, 4057 kPa, Gas	0.2153
367.32 K, 4058 kPa, Gas	0.2233
367.32 K, 4059 kPa, Gas	0.2315
367.32 K, 4060 kPa, Liquid	0.2315
367.32 K, 4061 kPa, Liquid	0.2164
367.32 K, 4062 kPa, Liquid	0.2079
367.32 K, 4063 kPa, Liquid	0.1998
367.32 K, 4064 kPa, Liquid	0.1925
367.32 K, 4065 kPa, Liquid	0.1857
